Measured values published in patent publication US8637683B2, “Macrocyclic lactone derivatives for the treatment of cancer” (Piramal Enterprises Limited, priority 2009, dated 2014).
Converted amounts (≈) assume the structure as drawn.

Tests used:
Format in all cases: cell-based, human
[1] = test system: MEXF 462NL; assay: Monolayer assay (modified propidium iodide), MEXF 462NL; details: Melanoma, 4 days of treatment
Source text: (§1) Oncotest GmbH, Germany's proprietary tumor cell line panel comprises 40 cell lines. These cell lines were derived from 15 different tumor histotypes, each represented by 1 to 6 different cell lines. Cell lines were established from cancer of the bladder (3), colon (4), head and neck (1), lung (6), breast (3), pancreas (3), prostate (4), ovary (2), kidney (3), liver (1), stomach (1) and the uteri body (1), as well as from melanoma (3), sarcoma (2) and pleuramesothelioma (3). Out of these 40 cell lines, 24 cell lines were established at Oncotest, from patient-derived tumor xenografts. […]
(§2) Stock solutions of the test compounds (330 μg/mL in DMSO) were prepared and stored in small aliquots (200 μL) at −20° C. […] Each concentration was evaluated in triplicate. […]
(§3) Cells were plated in 96-well flat-bottom microtiter plates at a cell density of 4,000 to 10,000 cells/well. […] To measure the viable cell number, the remaining adherent cells were killed and permeabilized by repeated freezing and thawing and PI fluorescence was measured using the Cytofluor 4000 microplate reader (excitation λ=530 nm, emission λ=620 nm), which was a measure for the number of cells which survived treatment. […] IC-values were calculated based on the principle of linear two-point curve fit. […]

[2] = test system: CXF 269L; assay: Monolayer assay (modified propidium iodide), CXF 269L; details: Colon, 4 days of treatment
Source text: (§4) Oncotest GmbH, Germany's proprietary tumor cell line panel comprises 40 cell lines. These cell lines were derived from 15 different tumor histotypes, each represented by 1 to 6 different cell lines. Cell lines were established from cancer of the bladder (3), colon (4), head and neck (1), lung (6), breast (3), pancreas (3), prostate (4), ovary (2), kidney (3), liver (1), stomach (1) and the uteri body (1), as well as from melanoma (3), sarcoma (2) and pleuramesothelioma (3). Out of these 40 cell lines, 24 cell lines were established at Oncotest, from patient-derived tumor xenografts. The other 16 cell lines were either provided by the NCI (Bethesda; MD, USA) or were purchased from ATCC (Rockville, Md., USA) or DSMZ (Braunschweig, Germany).
(§5) Cell lines were routinely passaged once or twice weekly and maintained in culture for upto 20 passages. All cells were grown at 37° C. in a humidified atmosphere with 5% CO2 in RPMI 1640 medium supplemented with 10% (v/v) fetal calf serum (FCS) and 0.1 mg/mL gentamicin (medium and all other components from PAA, Cölbe, Germany). […]
as §2
as §3, with “treatment. Pharmacological effects on cell proliferation and survival were expressed as Test/Control×100 (% T/C) values, with T and C representing the fluorescence read-outs for wells with and without test compound, respectively, i.e. T/C represents the ratio of viable cell numbers following incubation of cell line with/without test compound.” for “treatment.”

[3] = test system: LXF 529L; assay: Monolayer assay (modified propidium iodide), LXF 529L; details: Lung, 4 days of treatment
Source text: as §1, §2, §3

[4] = test system: BXF 1218L; assay: Monolayer assay (modified propidium iodide), BXF 1218L; details: Bladder, 4 days of treatment
Source text: as §1, §2, §3

[5] = test system: T 24; assay: Monolayer assay (modified propidium iodide), T 24; details: T 24, Bladder, 4 days of treatment
Source text: as §4, §5, §2
as §3, with “treatment. Pharmacological effects on cell proliferation and survival were expressed as Test/Control×100 (% T/C) values, with T and C representing the fluorescence read-outs for wells with and without test compound, respectively, i.e. T/C represents the ratio of viable cell numbers following incubation of cell line with/without test compound.” for “treatment.”

[6] = test system: PANC 1; assay: Monolayer assay (modified propidium iodide), PANC 1; details: PANC 1, Pancreas, 4 days of treatment
Source text: as §1, §2, §3

[7] = test system: TE671; assay: Monolayer assay (modified propidium iodide), TE671; details: TE671, Sarcoma, 4 days of treatment
Source text: as §1, §2, §3

[8] = test system: LIXF 575L; assay: Monolayer assay (modified propidium iodide), LIXF 575L; details: Liver, 4 days of treatment
Source text: as §1, §2, §3

[9] = test system: HT 29; assay: Monolayer assay (modified propidium iodide), HT 29; details: HT 29, Colon, 4 days of treatment
Source text: as §1, §2, §3

[10] = test system: RXF 1781L; assay: Monolayer assay (modified propidium iodide), RXF 1781L; details: Renal, 4 days of treatment
Source text: as §1, §2, §3

[11] = test system: BXF 1352L; assay: Monolayer assay (modified propidium iodide), BXF 1352L; details: Bladder, 4 days of treatment
Source text: as §1, §2, §3

[12] = test system: PC3M; assay: Monolayer assay (modified propidium iodide), PC3M; details: Prostate, 4 days of treatment
Source text: as §1, §2, §3

[13] = test system: PAXF 1657L; assay: Monolayer assay (modified propidium iodide), PAXF 1657L; details: Pancreas, 4 days of treatment
Source text: as §1, §2, §3

[14] = test system: 22RV1; assay: Monolayer assay (modified propidium iodide), 22RV1; details: 22RV1, Prostate, 4 days of treatment
Source text: as §1, §2, §3

[15] = test system: MEXF 276L; assay: Monolayer assay (modified propidium iodide), MEXF 276L; details: Melanoma, 4 days of treatment
Source text: as §1, §2, §3

[16] = test system: RXF 393NL; assay: Monolayer assay (modified propidium iodide), RXF 393NL; details: Renal, 4 days of treatment
Source text: as §1, §2, §3

[17] = test system: PXF 698L; assay: Monolayer assay (modified propidium iodide), PXF 698L; details: Pleuramesothelioma, 4 days of treatment
Source text: as §1, §2, §3

[18] = test system: DU 145; assay: Monolayer assay (modified propidium iodide), DU 145; details: DU 145, Prostate, 4 days of treatment
Source text: as §1, §2, §3

SMILES: C/C=C/C(O)C(C)/C=C/C(=N\O)C(C)C(O)C(C)C1OC(=O)/C(OC)=C/C(C)=C/C(C)C(O)C(CC)C(O)C(C)C/C(C)=C/C=C/C1OC (stereo not drawn) [Example 7, (3Z,5E,13E,15E)-18-((5Z,6E,10E)-3,9-Dihydroxy-5-(hydroxymino)-4,8-dimethyldodeca-6,10-dien-2-yl)-9-ethyl-8,10-dihydroxy-3,17-dimethoxy-5,7,11,13-tetramethyl oxacyclooctadeca-3,5,13,15-tetraen-2-one]
- IC50 ([1]; Homo sapiens, 96 h): 3 ng/mL (≈ 4.35 nM)
- IC70 [1]: 6.0 ng/mL (≈ 8.7 nM)
- IC70 [2]: 0.2 ng/mL (≈ 0.29 nM)
- IC50 ([2]; Homo sapiens, 96 h): < 0.1 ng/mL
- IC50 ([3]; Homo sapiens, 96 h): 1 ng/mL (≈ 1.45 nM)
- IC70 [3]: 7.0 ng/mL (≈ 10.1 nM)
- IC70 [4]: 46.0 ng/mL (≈ 66.7 nM)
- IC50 ([4]; Homo sapiens, 96 h): 4 ng/mL (≈ 5.8 nM)
- IC50 ([5]; Homo sapiens, 96 h): < 0.1 ng/mL
- IC70 [5]: 0.3 ng/mL (≈ 0.435 nM)
- IC50 ([6]; Homo sapiens, 96 h): 0.6 ng/mL (≈ 0.87 nM)
- IC70 [6]: 17.0 ng/mL (≈ 24.6 nM)
- IC50 ([7]; Homo sapiens, TE-671, 96 h): 2 ng/mL (≈ 2.9 nM)
- IC70 [7]: 5.0 ng/mL (≈ 7.25 nM)
- IC50 ([8]; Homo sapiens, 96 h): < 0.1 ng/mL
- IC70 [8]: 2.0 ng/mL (≈ 2.9 nM)
- IC70 [9]: 0.9 ng/mL (≈ 1.3 nM)
- IC50 ([9]; Homo sapiens, 96 h): 0.4 ng/mL (≈ 0.58 nM)
- IC50 ([10]; Homo sapiens, 96 h): 7 ng/mL (≈ 10.1 nM)
- IC70 [10]: 28.0 ng/mL (≈ 40.6 nM)
- IC70 [11]: 2.0 ng/mL (≈ 2.9 nM)
- IC50 ([11]; Homo sapiens, 96 h): 0.2 ng/mL (≈ 0.29 nM)
- IC50 ([12]; Homo sapiens, PC-3M, 96 h): 0.4 ng/mL (≈ 0.58 nM)
- IC70 [12]: 3.0 ng/mL (≈ 4.35 nM)
- IC50 ([13]; Homo sapiens, 96 h): 8 ng/mL (≈ 11.6 nM)
- IC70 [13]: >1000 ng/mL
- IC70 [14]: 9.0 ng/mL (≈ 13 nM)
- IC50 ([14]; Homo sapiens, 96 h): 4 ng/mL (≈ 5.8 nM)
- IC50 ([15]; Homo sapiens, MEXF276L, 96 h): 1 ng/mL (≈ 1.45 nM)
- IC70 [15]: 251.0 ng/mL (≈ 364 nM)
- IC50 ([16]; Homo sapiens, 96 h): 7 ng/mL (≈ 10.1 nM)
- IC70 [16]: 1000 ng/mL (≈ 1450 nM)
- IC50 ([17]; Homo sapiens, 96 h): 0.4 ng/mL (≈ 0.58 nM)
- IC70 [17]: 2.0 ng/mL (≈ 2.9 nM)
- IC70 [18]: 0.6 ng/mL (≈ 0.87 nM)
- IC50 ([18]; Homo sapiens, 96 h): < 0.1 ng/mL
